# Data published in patent EP0728012B1, “NOVEL GnRH ANALOGUES WITH ANTITUMOUR EFFECTS AND PHARMACEUTICAL COMPOSITIONS THEREOF” (Lovas, Sandor, priority 1994, dated 1996).
# Experiments:
# MXT mouse mammary tumour = assay: In vivo antitumour effect on mice bearing MXT mouse mammary tumour; design: species or system CBA/Ca mice
# Procedure: The MXT mouse mammary carcinoma contains ER and PgR proteins; furthermore, it contains also GnRH receptors; therefore, this in vivo tumour model is suitable for studying both the direct and indirect effects. The treatment of mice bearing MXT mammary tumour was commenced on the day following transplantation. […] Table VI The animals were daily treated in s.c. route starting from the day following transplantation of MXT mouse mammary tumour. […] MI-1544: 75 µg/day/animal; MI-1892: 75 µg/day/animal.
# human tumour cell lines = assay: Inhibition of colony formation (Example 18), cell line not given; type: cell-based; details: 50 µM of the active substance; cell line not stated
# Procedure: The investigation gives a precise information about the cell-damaging effect of the tested substance. In the case of cytostatics the cell-damaging effect is not cell-specific. […] One part of the arrested cells again go into the cycle, the other part may perish (apoptosis). […] The investigations were carried out on MCF-7 and MDA-MB-231 human mammary carcinoma cell lines, PC3 human prostate 15 carcinoma cell line and Ishikawa human endometrium carcinoma cell line. Three hundred cells were set into Petri dishes of 3.5 cm in diameter each. The treatment was carried out once, 24 hours following the explantation, then the colonies formed were counted after 9 to 12 days.
# [1] = test system: cytosolic progesterone receptor (cPgR); details: animals bearing MCF-7 xenografts
# Ishikawa = details: 30 µM active substance, conjugate, treated once
# Procedure: The procedure of treatment was as follows. After trypsinization the cells, 400,000 cells of MCF-7, MDA-MB-231 human mammary carcinoma, PC3 human prostate carcinoma or Ishikawa human endometrium tumour each were passed into Petri dishes of 10 cm in diameter. Starting from the day following transfer, the cells were treated with the substances to be tested in solution prepared with the nutrient medium during the exponential growth phase. The cultures were treated with 1 to 50 µM (calculated for the total volume of the culture) or MI-1544 GnRH antagonist, MI-1892 chicken GnRH antagonist or SJ-1004 GnRH […] on the 7th day.
# PC3 = assay: In vitro inhibition of cell proliferation (Example 19); type: cell-based, human; details: 30 µM active substance, conjugate, treated once
# Procedure: The procedure of treatment was as follows. After trypsinization the cells, 400,000 cells of MCF-7, MDA-MB-231 human mammary carcinoma, PC3 human prostate carcinoma or Ishikawa human endometrium tumour each were passed into Petri dishes of 10 cm in diameter. Starting from the day following transfer, the cells were treated with the substances to be tested in solution prepared with the nutrient medium during the exponential growth phase. The cultures were treated with 1 to 50 µM (calculated for the total volume of the culture) or MI-1544 GnRH antagonist, MI-1892 chicken GnRH antagonist or SJ-1004 GnRH antagonist analogues as well as synthetic lamprey GnRH-III hormone every two days and the cell count was determined on the 7th day.
# MCF-7 xenograft = assay: In vivo antitumour effect on MCF-7 xenograft in immunosuppressed mice; design: species or system CBA/Ca mice; details: for rate of tumour growth / decrease in the tumour volume in comparison to controls: first study; for rate of tumour growth: conjugates 150 µg in every 3rd day, P-GFLG-OH daily s.c.; for decrease in the tumour volume in comparison to controls: end of 4th week, MI-1892 2 x 25 µg daily, conjugates 50 µg daily once; for tumour volume: 4th week of treatment; for Tumour volume as control (%): conjugates 1 x 50 µg; for Inhibition % (tumour growth): daily s.c.; for Volume (cm^3) of tumours / Weight (g) of tumours: after 6 week treatment, xenograft not given
# Procedure: The immunosuppression of mice was carried out by using the method of Steel et al. [Br. J. Cancer, 37, 224-230 (1978)]. Immunosuppression and xeno-transplantation
# CBA-Ca female mice of about 6 weeks old were thymectomized and then, after one week, they were irradiated with 60Co (whole body irradiation; the lethal dose is 9.5 Gray). Within 24 hours 3 to 5 x 10^5 myelocytes were injected into the animals. Beneath the skin of the immunosuppressed mice 2 x 10^7 tumour cells or, in the case of later passages, […] were implanted. […] The treatment with steroid hormone was stopped by at least one week before beginning the investigation.
# In the case of MCF-7 tumours (xenografts) the examinations were carried out with passages being in the phase of the 37th and 38th, respectively, transplantations.
# In the case of mice bearing MCF-7 xenograft, the treatment was begun in the 4th week following xeno-transplantation.
# Recent investigations have begun on 28 animals bearing MCF-7 xenograft and on 28 animals bearing MDA-MB-231 xenograft. On animals bearing MCF-7 tumour the treatment was commenced in the 5th week following xeno-transplantation; the tumour volume was 205 to 225 mm^3. On animals bearing MDA-MB-231 tumour, the treatment was started in the 4th week after xeno-transplantation with a tumour volume of 140 to 150 mm^3. […] The control groups were daily treated with physiological saline s.c. (Each treated group consisting of 7 animals).
# [2] = test system: PC3 human prostate carcinoma cell line; assay: Inhibition of colony formation (dose-survival relation, Example 18); type: cell-based; details: for inhibition of colony formation: 30 to 50 µM
# [3] = test system: MDA-MB-231 human mammary carcinoma cell line; assay: as above; type: cell-based
# [4] = test system: Ishikawa human endometrium carcinoma cell line; assay: as above; type: cell-based; details: for inhibition of colony formation: 30 to 50 µM
# [5] = test system: MCF-7 human mammary carcinoma cell line; assay: as above; type: cell-based; details: treated once
# [6] = MXT mouse mammary tumour, Treatment weeks: 13, 1x75 µg daily s.c.
# [7] = MXT mouse mammary tumour, Treatment weeks: 20, 1x75 µg daily s.c.
# [8] = MCF-7 xenograft, treatment week 2
# [9] = MCF-7 xenograft, treatment week 4
# [10] = MCF-7 xenograft, treatment week 6, MI-1892 2 x 25 µg
substance,measurement,setting,value
"Ac-D-Trp^1,3,D-Cpa^2,{Lys(n-poly-(N-vinylpyrrolidone-co-maleic acid)-Gly-Phe-Leu-Gly]}^6,D-Ala^10-GnRH [P-GFLG-1544]",Inhibition %,MXT mouse mammary tumour; [6],61%
same,Tumour volume as control (%),MXT mouse mammary tumour; [6],39%
same,Inhibition %,MXT mouse mammary tumour; [7],49%
same,Tumour volume as control (%),MXT mouse mammary tumour; [7],51%
same,Tumour volume (cm^3),"MXT mouse mammary tumour; day 9, 75 µg/day/animal s.c.",0.38 cm^3
same,Tumour volume as control (%),"MXT mouse mammary tumour; day 9, 75 µg/day/animal s.c.",55%
same,Tumour volume (cm^3),"MXT mouse mammary tumour; day 11, 75 µg/day/animal s.c.",0.74 cm^3
same,Tumour volume as control (%),"MXT mouse mammary tumour; day 11, 75 µg/day/animal s.c.",41%
same,Tumour volume (cm^3),"MXT mouse mammary tumour; day 13, 75 µg/day/animal s.c.",1.26 cm^3
same,Tumour volume as control (%),"MXT mouse mammary tumour; day 13, 75 µg/day/animal s.c.",39%
same,Tumour volume (cm^3),"MXT mouse mammary tumour; day 17, 75 µg/day/animal s.c.",2.43 cm^3
same,Tumour volume as control (%),"MXT mouse mammary tumour; day 17, 75 µg/day/animal s.c.",46%
same,Tumour volume (cm^3),"MXT mouse mammary tumour; day 18, 75 µg/day/animal s.c.",3.91 cm^3
same,Tumour volume as control (%),"MXT mouse mammary tumour; day 18, 75 µg/day/animal s.c.",52%
same,Tumour volume (cm^3),"MXT mouse mammary tumour; day 20, 75 µg/day/animal s.c.",4.74 cm^3
same,Tumour volume as control (%),"MXT mouse mammary tumour; day 20, 75 µg/day/animal s.c.",51%
same,Tumour volume (cm^3),"MXT mouse mammary tumour; day 24, 75 µg/day/animal s.c.",7.34 cm^3
same,Tumour volume as control (%),"MXT mouse mammary tumour; day 24, 75 µg/day/animal s.c.",58%
same,Tumour volume (cm^3),"MXT mouse mammary tumour; day 26, 75 µg/day/animal s.c.",9.03 cm^3
same,Tumour volume as control (%),"MXT mouse mammary tumour; day 26, 75 µg/day/animal s.c.",65%
same,inhibition on the colony formation / survival of the cells,human tumour cell lines,100%
same,decrease of the uterus cPgR level,[1],54%
same,% Inhibition of cell division (proliferation),Ishikawa,95%
same,% Inhibition of cell division (proliferation),PC3,68.5%
same,rate of tumour growth,MCF-7 xenograft; MCF-7 xenograft,not influenced
same,decrease in the tumour volume in comparison to controls,MCF-7 xenograft; MCF-7 xenograft,30%
same,tumour volume,MCF-7 xenograft; MCF-7 xenograft,1.806 cm^3
same,tumour-free animals,"MCF-7 xenograft; MCF-7 xenograft, 6th week",a tumour-free animal was found
same,Tumour volume as control (%),MCF-7 xenograft; [8],70%
same,Inhibition % (tumour growth),"MCF-7 xenograft; MCF-7 xenograft, treatment week 2, listed as 6. P-GFLG-1544",30%
same,Inhibition % (tumour growth),MCF-7 xenograft; [9],49%
same,Tumour volume as control (%),MCF-7 xenograft; [10],51%
same,Inhibition % (tumour growth),"MCF-7 xenograft; MCF-7 xenograft, treatment week 6, listed as 6. P-GFLG-1544",49%
same,Volume (cm^3) of tumours,MCF-7 xenograft,3.502 ± 0.321 cm^3
same,Weight (g) of tumours,MCF-7 xenograft,4.8 ± 0.8 g
same,% Inhibition of colony formation,[2]; 10 µM,100%
same,% Inhibition of colony formation,[2]; 50 µM,100%
same,inhibition of colony formation,[2],100%
same,% Inhibition of colony formation,[3]; 10 µM,80%
same,% Inhibition of colony formation,[3]; 50 µM,100%
same,% Inhibition of colony formation,[4]; 50 µM,100%
same,inhibition of colony formation,[4],100%
same,% Inhibition of colony formation,[5]; 10 µM (active substance),85%
same,% Inhibition of colony formation,[5]; 50 µM (active substance),100%
"Ac-D-Trp^1,3,D-Cpa^2, {Lys[n-poly(N-vinyl pyrrolidone-co-maleic acid)-Gly-Phe-Leu-Gly-]}^5, [a-Asp(DEA)]^6, D-Ala^10-GnRH [P-GFLG-1892]",Inhibition %,MXT mouse mammary tumour; [6],72%
same,Tumour volume as control (%),MXT mouse mammary tumour; [6],28%
same,Inhibition %,MXT mouse mammary tumour; [7],62%
same,Tumour volume as control (%),MXT mouse mammary tumour; [7],38%
same,Tumour volume (cm^3),"MXT mouse mammary tumour; day 9, 75 µg/day/animal s.c.",0.29 cm^3
same,Tumour volume as control (%),"MXT mouse mammary tumour; day 9, 75 µg/day/animal s.c.",40%
same,Tumour volume (cm^3),"MXT mouse mammary tumour; day 11, 75 µg/day/animal s.c.",0.66 cm^3
same,Tumour volume as control (%),"MXT mouse mammary tumour; day 11, 75 µg/day/animal s.c.",36%
same,Tumour volume (cm^3),"MXT mouse mammary tumour; day 13, 75 µg/day/animal s.c.",0.91 cm^3
same,Tumour volume as control (%),"MXT mouse mammary tumour; day 13, 75 µg/day/animal s.c.",28%
same,Tumour volume (cm^3),"MXT mouse mammary tumour; day 17, 75 µg/day/animal s.c.",1.86 cm^3
same,Tumour volume as control (%),"MXT mouse mammary tumour; day 17, 75 µg/day/animal s.c.",36%
same,Tumour volume (cm^3),"MXT mouse mammary tumour; day 18, 75 µg/day/animal s.c.",3.1 cm^3
same,Tumour volume as control (%),"MXT mouse mammary tumour; day 18, 75 µg/day/animal s.c.",42%
same,Tumour volume (cm^3),"MXT mouse mammary tumour; day 20, 75 µg/day/animal s.c.",3.61 cm^3
same,Tumour volume as control (%),"MXT mouse mammary tumour; day 20, 75 µg/day/animal s.c.",38%
same,Tumour volume (cm^3),"MXT mouse mammary tumour; day 24, 75 µg/day/animal s.c.",6.07 cm^3
same,Tumour volume as control (%),"MXT mouse mammary tumour; day 24, 75 µg/day/animal s.c.",48%
same,Tumour volume (cm^3),"MXT mouse mammary tumour; day 26, 75 µg/day/animal s.c.",8.91 cm^3
same,Tumour volume as control (%),"MXT mouse mammary tumour; day 26, 75 µg/day/animal s.c.",64%
same,inhibition on the colony formation / survival of the cells,human tumour cell lines,100%
same,decrease of the uterus cPgR level,[1],23%
same,% Inhibition of cell division (proliferation),Ishikawa,91%
same,% Inhibition of cell division (proliferation),PC3,51%
same,rate of tumour growth,MCF-7 xenograft; MCF-7 xenograft,not influenced
same,decrease in the tumour volume in comparison to controls,MCF-7 xenograft; MCF-7 xenograft,30%
same,tumour volume,MCF-7 xenograft; MCF-7 xenograft,2.428 cm^3
same,Tumour volume as control (%),MCF-7 xenograft; [8],70%
same,Inhibition % (tumour growth),"MCF-7 xenograft; MCF-7 xenograft, treatment week 2, listed as 5. P-GFLG-1892",30%
same,Inhibition % (tumour growth),MCF-7 xenograft; [9],37%
same,Tumour volume as control (%),MCF-7 xenograft; [10],57%
same,Inhibition % (tumour growth),"MCF-7 xenograft; MCF-7 xenograft, treatment week 6, listed as 5. P-GFLG-1892",43%
same,Volume (cm^3) of tumours,MCF-7 xenograft,4.327 ± 0.379 cm^3
same,Weight (g) of tumours,MCF-7 xenograft,4.0 ± 0.9 g
same,% Inhibition of colony formation,[2]; 10 µM,86%
same,inhibition of colony formation,[2],100%
same,% Inhibition of colony formation,[3]; 10 µM,92%
same,% Inhibition of colony formation,[3]; 30 µM,100%
same,% Inhibition of colony formation,[4]; 10 µM,72%
same,% Inhibition of colony formation,[4]; 30 µM,100%
same,inhibition of colony formation,[4],100%
same,% Inhibition of colony formation,[5]; 10 µM (active substance),60%
same,% Inhibition of colony formation,[5]; 50 µM (active substance),93%
